The subject of assay [1] is sepharose-bound anti-E2 (HS)-COOH antibodies. Nature of the assay: Inhibition and cross-reaction experiments with E2(HS)-CONH-CH2-Fc. The assay is classed as binding, rabbit. As for the experimental part:
A fixed volume (30 μl) of a solution of iron-labelled estradiol hemisuccinate, E2 (HS)-CONH-CH2 Fc, of suitable concentration (selected from the results obtained in Step (ii) above) was mixed with a constant volume (30 μl) of solutions of various concentrations of unlabelled hapten, estradiol hemisuccinate (or estrone-17-(0-Carboxymethyl)oxime, E1 (Ox)-COOH). This mixture was added to a constant volume (60 μl) of the sepharose-bound antibodies, Vortex-mixed for 1 min. and allowed to incubate at room temperature for 30 min. The Vortex-mixing was repeated at intervals of 10 min. The assay mixture was then centrifuged for 1 min. at 3000 r.p.m. Aliquots (30 μl) were extracted with an Eppendorf pipette and injected into the graphite tube of the AA instrument. The following controls were taken through the same procedure to determine specificity: (a) a suspension of sepharose-bound antibodies without addition of metal-labelled hapten; (b) the mixtures of metal-labelled and non-labelled haptens, without addition of the sepharose-bound antibodies; (c) the mixture of metal-labelled and non-labelled haptens with addition of sepharose-bound γ-globulins of normal rabbit serum.

The subject of assay [2] is Anti-BSA antiserum. The assay can be described thus: Interaction of cobalt-labelled BSA conjugate with anti-BSA antibodies, supernatant Co by AAS. It is filed as binding. As for the experimental part: (1) Anti-BSA antiserum (100 μl) was added to each of four tubes numbered 1 to 4. The same volume (100 μl) of 0.01 M phosphate buffer was added to each of additional four tubes, numbered 5 to 8.
(2) A fixed volume (100 μl) of four dilutions of BSA-Cobalt labelled conjugate, containing 0.23, 0.47, 0.94 and 1.88 μg Co/ml (or 0.8, 1.6, 3.1 and 6.2 μg BSA conjugate/100 μl of sample) added to the tubes 1 to 4 respectively and similarly to tubes 5 to 8 respectively.
(3) The solutions were mixed on a Vortex, allowed to incubate for 1 hr. at 37° C. and then for 48 hrs. at 4° C.
(4) The tubes were then centrifuged for 30 min. at 4° C.
(5) The supernatant was analyzed for Co by atomic absorption.
The readings obtained from tubes 5 through 8 served as calibrating controls. The readings from tubes 1 through 4 then indicated the amount of free cobalt-labelled BSA left in solution (by difference the "bound" BSA antigen could be determined). The atomic absorption measurements were interpolated into the calibration curve and gave 0.00, 0.06, 0.59 and 1.25 μg Co/ml of "free" hapten, equivalent to a concentration of 0,0.2,2.0 and 4.3 μg BSA conjugate/100 μl of original sample in tubes 1,2,3 and 4 respectively.

`C[C@]12CC[C@@H]3c4ccc(O)cc4CC[C@H]3[C@@H]1CCC2=NOCC(=O)O` [E1 (OX)--COOH, Extrone oxime-0-carboxymethyl]: the “Inhibition of E2 (HS)--CONH--CH2 Fc (27.5 × 10^-7 M), cross-reaction” value was found to be 0.5% in assay [1] (unlabelled hapten 3.75 × 10^-7 M); 3.0% in assay [1] (unlabelled hapten 7.5 × 10^-7 M); 6.5% in assay [1] (unlabelled hapten 15.0 × 10^-7 M (E1 column)); 9.5% in assay [1] (unlabelled hapten 37.5 × 10^-7 M); 25.5% in assay [1] (unlabelled hapten 75.0 × 10^-7 M); 50.5% in assay [1] (unlabelled hapten 150.0 × 10^-7 M (E1 column)).
For `C[C@]12CC[C@@H]3c4ccc(O)cc4CC[C@H]3[C@@H]1CC[C@@H]2OC(=O)CCC(=O)O` [E2 (HS)--COOH, Estradiol-17β-hemisuccinate], the “Inhibition of E2 (HS)--CONH--CH2 Fc (27.5 × 10^-7 M)” value is 8.5% in assay [1] (unlabelled hapten 3.6 × 10^-7 M); 17.5% in assay [1] (unlabelled hapten 7.2 × 10^-7 M); 21.5% in assay [1] (unlabelled hapten 15.0 × 10^-7 M (E2 column)); 43.5% in assay [1] (unlabelled hapten 36.0 × 10^-7 M); 48.0% in assay [1] (unlabelled hapten 72.0 × 10^-7 M); 56.0% in assay [1] (unlabelled hapten 150.0 × 10^-7 M (E2 column)). For the same molecule, the “Inhibition of E2 (HS)--CONH--CH2 Fc (27.5 × 10^-7 M)” value in assay [1] (unlabelled hapten 300.0 × 10^-7 M) came out at 63.5%.
Turning to “BSA-Cobalt labelled conjugate: Bovine serum albumin labelled with carboxycobalticenium N-succinimide ester, about 35 haptens per mole”, the “"free" hapten in supernatant” value in assay [2] (tube 1: conjugate 0.23 μg Co/ml, 100 μl + 100 μl antiserum, 1 hr 37° C., 48 hrs 4° C.) was 0.00 μg Co/ml; in assay [2] (tube 2: conjugate 0.47 μg Co/ml), 0.06 μg Co/ml; in assay [2] (tube 3: conjugate 0.94 μg Co/ml) it was 0.59 μg Co/ml; in assay [2] (tube 4: conjugate 1.88 μg Co/ml), 1.25 μg Co/ml. Besides, the “free conjugate, equivalent concentration” value in assay [2] (tube 4: 6.2 μg BSA conjugate/100 μl added) is 4.3 μg BSA conjugate/100 μl of original sample.

Source of the values: US4205952A, “Specific binding assay method and reagent means” (Technion Research & Development Foundation Ltd., priority 1976, dated 1980).
